Laboratory results: ChEMBL document CHEMBL1201862, “PubChem BioAssay data set” (2004)
The source made the active and inactive calls.

Assays:
[1] = biological target: Metabotropic glutamate receptor 5 (Rattus norvegicus, UniProt P31424); test: Identification of a glycine sulfonamide based non-MPEP site positive allosteric potentiator (PAM) of mGlu5 (calcium_assay).; assay type: functional
[2] = NIH:OVCAR-3 ovarian cancer cell cytotoxicity, dose response, PAX8 inhibitor project, plate reader, dry powder samples (AID 743044); assay type: functional, cell-based
Paired box protein Pax-8 = Paired box protein Pax-8 (Homo sapiens, UniProt Q06710); test: inhibitors of PAX8-driven TPO luciferase reporter, dose response, RMG-I cells, cherry-pick (AID 687027); assay type: functional, cell-based;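 further: luciferase reporter driven by Pax8 target thyroperoxidase promoter measured by SteadyGlo luminescence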
[3] = cytotoxicity in OVCAR8 ovarian cancer cells, dose response, PAX8 project, cell-based, plate reader, dry powder samples (AID 743197); assay type: functional; conditions: OVCAR-8
[4] = CEM21 lymphoblast cell cytotoxicity, dose response, cytotoxicity control for viral fusion inhibitor project, CellTiter-Glo luminescence, cherry-picked (AID 652042); assay type: functional, cell-based;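 further: potency for signal decrease meaning cytotoxicity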
[5] = MC4R antagonists, dose response, counter-screen for LGR2 antagonist project, cell-based, plate reader, cherry pick (AID 743444); assay type: functional;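 further: transfected HEK 293 cells stimulated with alpha-MSH peptide; potency of inhibitors of the alpha-MSH evoked signal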
[6] = A549 cell cytotoxicity, dose response, cytotoxicity control, plate reader, cherry-pick, antagonist series (AID 743412); assay type: functional, cell-based
[7] = LGR2 antagonists, dose response, cell-based, HEK293, CRE-luciferase reporter, cherry pick, set 2 (AID 743343); assay type: functional;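 further: transfected cells were stimulated with diluted bursicon conditioned medium after compound addition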
[8] = inhibitors of clade B AD8 Env fusion, dose response, cell-based, cherry-pick (AID 652062); assay type: functional;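 further: luciferase signal from cell-cell fusion driven by HIV-1 clade B AD8 Env; potency is for inhibitors of fusion seen as a drop in luminescence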
[9] = ZM109 Env clade C HIV-1 fusion inhibitors, dose response, HeLa effector, CEM target cells, luciferase, cherry-pick (AID 652058); assay type: functional, cell-based
[10] = inhibitors of HIV Env-driven cell fusion, dose response, cherry-pick (AID 652057); assay type: functional, cell-based
[11] = off-target signal loss in HeLa-CEM21 co-culture – HeLa F-luc CTL cells, cherry-picked, counter-screen for HIV-1 Env fusion inhibitor project, dose response (AID 652040); assay type: functional, cell-based;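 further: potency for signal decrease marking cytotoxic or nonspecific inhibition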
[12] = HepG2 cell cytotoxicity, dose response, cytotoxicity control, plate reader, cherry-pick, antagonist series (AID 743416); assay type: functional, cell-based
[13] = HEK293 cell cytotoxicity, dose response, cytotoxicity control, plate reader, cherry-picked samples (AID 743446); assay type: functional, cell-based
cells = assay type: functional, cell-based; conditions: HEK-CNG
Galanin receptor type 3 = biological target: T1, Galanin receptor type 3 (Homo sapiens, UniProt O60755); test: Fluorescence-based cell-based primary high throughput dose response assay to identify antagonists of the Galanin Receptor 3 (GalR3).; assay type: functional
T1 sequence (O60755 whole entry): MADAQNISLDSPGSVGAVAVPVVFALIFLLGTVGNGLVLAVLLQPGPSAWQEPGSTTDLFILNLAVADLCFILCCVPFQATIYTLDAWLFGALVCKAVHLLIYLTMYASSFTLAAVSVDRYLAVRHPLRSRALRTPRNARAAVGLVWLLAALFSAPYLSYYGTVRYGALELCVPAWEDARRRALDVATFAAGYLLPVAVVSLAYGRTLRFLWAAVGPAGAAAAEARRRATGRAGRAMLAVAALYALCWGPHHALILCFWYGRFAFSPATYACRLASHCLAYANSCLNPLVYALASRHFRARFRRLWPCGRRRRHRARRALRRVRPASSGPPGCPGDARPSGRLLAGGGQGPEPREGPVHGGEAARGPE

[14] = biological target: T2, Corticotropin-releasing factor receptor 2/Corticotropin-releasing factor-binding protein (Homo sapiens, UniProt P24387+Q13324); test: Dose Response confirmation of uHTS hits for small molecule antagonists of the CRF-binding protein and CRF-R2 receptor complex.; assay type: functional; conditions: read-out: IC50_Mean
T2 sequence (Q13324 whole entry): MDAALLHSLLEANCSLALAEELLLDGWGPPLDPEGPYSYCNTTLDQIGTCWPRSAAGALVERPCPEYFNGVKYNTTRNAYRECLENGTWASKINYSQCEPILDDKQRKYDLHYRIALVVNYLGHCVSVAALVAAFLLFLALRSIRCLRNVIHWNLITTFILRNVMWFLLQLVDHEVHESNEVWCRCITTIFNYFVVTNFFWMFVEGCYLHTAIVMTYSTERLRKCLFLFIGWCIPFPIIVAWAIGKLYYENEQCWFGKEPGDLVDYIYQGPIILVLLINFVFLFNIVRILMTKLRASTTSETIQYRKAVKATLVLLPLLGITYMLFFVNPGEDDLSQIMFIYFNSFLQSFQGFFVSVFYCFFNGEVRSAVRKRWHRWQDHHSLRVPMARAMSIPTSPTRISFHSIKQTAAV
T2 sequence (P24387 whole entry): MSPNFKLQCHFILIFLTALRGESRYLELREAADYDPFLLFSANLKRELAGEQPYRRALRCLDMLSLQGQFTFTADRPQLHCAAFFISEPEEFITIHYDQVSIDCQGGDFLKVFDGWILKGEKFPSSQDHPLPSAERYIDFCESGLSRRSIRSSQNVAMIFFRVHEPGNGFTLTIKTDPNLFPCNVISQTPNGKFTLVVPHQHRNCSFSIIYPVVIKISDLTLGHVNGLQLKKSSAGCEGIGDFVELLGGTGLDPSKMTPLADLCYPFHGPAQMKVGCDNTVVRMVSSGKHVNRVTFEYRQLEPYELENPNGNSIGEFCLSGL

[15] = system: Streptococcus sp. 'group A'; test: growth inhibition of control SK(-) GAS strain, dose response, counter-screen for streptokinase expression inhibitor project, luminescence, kanamycin, BacTiterGlo, confirmation (AID 1900); assay type: functional, organism-based
[16] = CRF-BP/CRF-R2 complex antagonists, dose response, cell-based, uHTS hits, 384-well (AID 651639); assay type: functional, Homo sapiens; conditions: read-out: IC50_Mean
Streptococcus = test: Group A Streptococcus viability loss, dose response, counter-screen for streptokinase expression inhibitor project, luminescence, BacTiterGlo (AID 1915); assay type: functional, organism-based;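 further: potency for reduction of bacterial viability or growth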
[17] = biological target: T2, Corticotropin-releasing factor receptor 2/Corticotropin-releasing factor-binding protein; test: activators of CRF receptor 2 with binding protein – uHTS hits, confirmation (AID 602473); assay type: functional; conditions: read-out: EC50_Mean
[18] = ADAM10 protease inhibitors, dose response, selectivity assay for ADAM17 exosite inhibitor project, biochemical, FRET peptide substrate, recombinant human ADAM10 (AID 743259);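 further: ADAM10 enzyme cleaving a FRET peptide substrate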
[19] = biological target: Disintegrin and metalloproteinase domain-containing protein 17 (Homo sapiens, UniProt P78536); test: exosite inhibitors of ADAM17, dose response, biochemical (AID 743260)
[20] = HeLa cell cytotoxicity, dose response, cytotoxicity control for MgcRacGAP inhibitor project (AID 624300); assay type: functional
[21] = biological target: T3, Microphthalmia-associated transcription factor (Homo sapiens, UniProt O75030); test: TRPM1 promoter luciferase signal decrease, dose response, MITF inhibitor project, cell-based, SK-MEL-5, cherry-picked, set 3 (AID 493073); assay type: functional
T3 sequence (O75030 whole entry): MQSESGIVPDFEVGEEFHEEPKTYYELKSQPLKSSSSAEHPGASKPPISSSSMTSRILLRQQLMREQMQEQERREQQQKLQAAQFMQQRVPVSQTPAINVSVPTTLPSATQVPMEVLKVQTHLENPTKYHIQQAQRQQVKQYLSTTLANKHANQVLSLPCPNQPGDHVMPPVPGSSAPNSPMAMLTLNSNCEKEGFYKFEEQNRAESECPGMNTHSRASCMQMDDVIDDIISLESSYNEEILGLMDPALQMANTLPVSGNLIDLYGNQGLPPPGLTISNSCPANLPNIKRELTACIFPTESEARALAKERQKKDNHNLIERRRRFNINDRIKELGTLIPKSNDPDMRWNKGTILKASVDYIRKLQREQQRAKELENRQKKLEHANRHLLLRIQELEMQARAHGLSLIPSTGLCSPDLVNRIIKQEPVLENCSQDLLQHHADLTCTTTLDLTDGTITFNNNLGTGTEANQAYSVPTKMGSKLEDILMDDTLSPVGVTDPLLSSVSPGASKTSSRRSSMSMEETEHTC

[22] = Fluorescence-based cell-based high throughput dose response assay for inhibitors of the interaction of nucleotide-binding oligomerization domain containing 2 (NOD2) and the receptor-interacting serine-threonine kinase 2 (RIPK2).; assay type: functional; conditions: Homo sapiens
Large T antigen = Large T antigen (Simian virus 40, UniProt P03070); assay type: functional, Betapolyomavirus macacae;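 further: Confirmatory-stage PubChem screen for compounds that inhibit SV40 T antigen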
Chain of Large T antigen (P03070 whole entry): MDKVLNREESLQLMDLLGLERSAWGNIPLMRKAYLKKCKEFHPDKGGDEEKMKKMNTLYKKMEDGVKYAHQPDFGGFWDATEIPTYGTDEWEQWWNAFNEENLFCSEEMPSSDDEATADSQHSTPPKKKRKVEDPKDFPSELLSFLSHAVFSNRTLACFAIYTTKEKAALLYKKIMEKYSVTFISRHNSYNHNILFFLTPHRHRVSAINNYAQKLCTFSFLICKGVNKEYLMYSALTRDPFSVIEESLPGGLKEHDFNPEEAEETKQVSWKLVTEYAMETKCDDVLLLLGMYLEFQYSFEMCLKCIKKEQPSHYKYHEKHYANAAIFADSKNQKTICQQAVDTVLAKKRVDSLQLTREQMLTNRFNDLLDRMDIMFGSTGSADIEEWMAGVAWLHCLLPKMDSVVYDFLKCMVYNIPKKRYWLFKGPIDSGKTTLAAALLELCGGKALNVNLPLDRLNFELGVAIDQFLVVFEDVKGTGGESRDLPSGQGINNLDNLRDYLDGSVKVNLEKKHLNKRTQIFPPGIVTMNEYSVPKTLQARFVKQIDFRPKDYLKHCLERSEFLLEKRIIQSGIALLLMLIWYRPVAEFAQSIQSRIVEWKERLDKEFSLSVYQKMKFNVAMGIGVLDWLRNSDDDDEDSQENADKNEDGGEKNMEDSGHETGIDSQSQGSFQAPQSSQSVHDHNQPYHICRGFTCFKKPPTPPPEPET

Chain of Disintegrin and metalloproteinase domain-containing protein 17 (P78536 whole entry, the tested form may be a part): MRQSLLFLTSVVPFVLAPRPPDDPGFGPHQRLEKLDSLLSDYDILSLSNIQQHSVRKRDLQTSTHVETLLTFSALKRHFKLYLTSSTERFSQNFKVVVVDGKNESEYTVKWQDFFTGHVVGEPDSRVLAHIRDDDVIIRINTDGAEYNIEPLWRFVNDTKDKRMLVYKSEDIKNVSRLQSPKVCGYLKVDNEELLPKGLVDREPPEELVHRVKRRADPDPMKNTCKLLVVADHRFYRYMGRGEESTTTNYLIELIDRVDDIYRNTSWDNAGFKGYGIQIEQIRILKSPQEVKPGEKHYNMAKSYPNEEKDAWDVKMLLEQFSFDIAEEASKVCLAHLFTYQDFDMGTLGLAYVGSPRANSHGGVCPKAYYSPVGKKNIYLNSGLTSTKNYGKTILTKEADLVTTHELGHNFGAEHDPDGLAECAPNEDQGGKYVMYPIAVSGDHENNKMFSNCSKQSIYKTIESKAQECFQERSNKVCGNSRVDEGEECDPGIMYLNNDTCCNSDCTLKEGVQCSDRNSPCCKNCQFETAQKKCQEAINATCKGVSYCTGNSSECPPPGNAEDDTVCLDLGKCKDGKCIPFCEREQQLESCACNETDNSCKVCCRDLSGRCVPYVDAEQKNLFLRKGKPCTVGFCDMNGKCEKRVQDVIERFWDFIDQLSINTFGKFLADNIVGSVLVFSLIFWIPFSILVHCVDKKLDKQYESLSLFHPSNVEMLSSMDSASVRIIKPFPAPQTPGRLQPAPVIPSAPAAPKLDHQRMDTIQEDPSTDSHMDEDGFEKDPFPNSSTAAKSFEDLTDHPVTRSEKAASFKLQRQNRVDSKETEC
Chain of Paired box protein Pax-8 (Q06710 whole entry): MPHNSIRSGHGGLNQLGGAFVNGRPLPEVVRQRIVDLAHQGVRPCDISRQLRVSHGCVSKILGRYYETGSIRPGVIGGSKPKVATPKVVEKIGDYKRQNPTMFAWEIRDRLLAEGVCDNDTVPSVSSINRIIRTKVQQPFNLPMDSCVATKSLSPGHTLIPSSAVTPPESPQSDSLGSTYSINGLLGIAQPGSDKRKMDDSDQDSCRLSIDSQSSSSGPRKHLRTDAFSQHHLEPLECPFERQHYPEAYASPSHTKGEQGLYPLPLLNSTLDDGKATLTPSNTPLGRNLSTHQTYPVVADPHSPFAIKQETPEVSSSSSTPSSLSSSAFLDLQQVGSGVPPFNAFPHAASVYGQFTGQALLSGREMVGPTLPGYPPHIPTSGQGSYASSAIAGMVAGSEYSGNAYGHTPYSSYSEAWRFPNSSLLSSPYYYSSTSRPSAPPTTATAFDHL
Chain of Metabotropic glutamate receptor 5 (P31424 whole entry): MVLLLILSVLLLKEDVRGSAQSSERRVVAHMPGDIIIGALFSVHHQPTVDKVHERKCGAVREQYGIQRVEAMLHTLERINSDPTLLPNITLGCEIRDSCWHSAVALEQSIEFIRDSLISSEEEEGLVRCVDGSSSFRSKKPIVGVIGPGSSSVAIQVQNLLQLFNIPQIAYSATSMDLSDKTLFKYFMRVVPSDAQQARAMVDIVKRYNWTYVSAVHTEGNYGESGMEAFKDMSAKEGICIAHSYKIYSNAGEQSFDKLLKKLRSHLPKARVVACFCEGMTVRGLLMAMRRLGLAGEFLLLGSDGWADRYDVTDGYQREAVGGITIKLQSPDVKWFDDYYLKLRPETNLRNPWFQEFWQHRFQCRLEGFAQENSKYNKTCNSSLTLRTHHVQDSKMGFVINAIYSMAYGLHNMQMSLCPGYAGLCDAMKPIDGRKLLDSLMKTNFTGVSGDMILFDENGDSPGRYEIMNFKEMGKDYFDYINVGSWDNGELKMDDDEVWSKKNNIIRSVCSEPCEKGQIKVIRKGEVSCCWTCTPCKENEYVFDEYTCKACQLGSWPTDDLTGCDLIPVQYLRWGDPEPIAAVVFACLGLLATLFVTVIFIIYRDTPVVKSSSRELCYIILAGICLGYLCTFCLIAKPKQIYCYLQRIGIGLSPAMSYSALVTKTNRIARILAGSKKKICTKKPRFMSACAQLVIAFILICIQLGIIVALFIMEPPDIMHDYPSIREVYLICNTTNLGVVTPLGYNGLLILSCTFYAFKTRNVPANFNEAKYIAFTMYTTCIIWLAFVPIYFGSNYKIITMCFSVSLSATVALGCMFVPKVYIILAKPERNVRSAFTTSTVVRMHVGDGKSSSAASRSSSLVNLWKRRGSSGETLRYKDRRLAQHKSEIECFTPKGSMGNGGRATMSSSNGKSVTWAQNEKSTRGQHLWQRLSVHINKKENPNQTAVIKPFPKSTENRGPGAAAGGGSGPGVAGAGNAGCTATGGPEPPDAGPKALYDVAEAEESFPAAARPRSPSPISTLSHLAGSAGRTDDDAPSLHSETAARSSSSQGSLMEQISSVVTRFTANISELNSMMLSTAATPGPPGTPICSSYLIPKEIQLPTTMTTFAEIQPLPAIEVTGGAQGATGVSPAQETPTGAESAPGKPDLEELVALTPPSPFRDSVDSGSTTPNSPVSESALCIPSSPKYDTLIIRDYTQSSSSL

Compound: CS(=O)(=O)N1c2ccccc2CCC1C(=O)Nc1nccs1 (stereo unspecified)
- EC50 [1]: 4.43 µM

Compound: C[C@H]1CCCCO[C@H](CN(C)C(=O)C2CCCCC2)[C@@H](C)CN([C@@H](C)CO)C(=O)c2cc(NS(=O)(=O)c3ccc(Cl)cc3)ccc2O1
- AC50 [2]: 33.9 µM (active)
- AC50 (Paired box protein Pax-8): 11.5 µM (active)
- AC50 [3]: > 70 µM (inactive)

Compound: O=C(NC1CCCCC1)c1[nH]nc2c1CCCCC2
- AC50 [4]: 29.7 µM (active)
- AC50 [5]: 2.24 µM (active)
- AC50 [6]: 37.1 µM (active)
- AC50 [7]: 3.2 µM (active)
- AC50 [8]: 7.38 µM (active)
- AC50 [9]: 16.3 µM (active)
- AC50 [10]: 6.09 µM (active)
- AC50 [11]: 13.8 µM (active)
- AC50 [12]: > 52 µM (inactive)
- AC50 [13]: > 52 µM (inactive)

Compound: Cn1c(C(=O)NN)cc2cc(Oc3ccccc3)ccc21
- EC50 (cells): > 29.9 µM (inactive)
- IC50 (Galanin receptor type 3): 8.17 µM (active)

Compound: O=[N+]([O-])c1ccc(-c2cc(O)n3nc(-c4ccc(F)cc4)cc3n2)cc1
- IC50 [14]: 27.4 µM (active)
- EC50 [15]: 4.2 µM (active)
- IC50 [16]: 12.9 µM (active)
- EC50 (Streptococcus): 6.44 µM (active)
- EC50 [17]: > 53 µM (inactive)

Compound: O=C(O)CCC(=O)c1c[nH]c2ccccc12
- IC50 [18]: > 69.5 µM (inactive)
- IC50 [19]: 24.9 µM (inactive)

Compound: N=C(NOC(=O)N1c2ccccc2Sc2ccccc21)c1ccc(Br)cc1
- CC50 [20]: 63.6 µM (active)

Compound: CCOC(=O)C1=C(C(=O)OCC)C2N(Cc3ccc(C#N)cc3)c3ccccc3[C@@]23C[C@@H](C(=O)OC)N(S(=O)(=O)c2ccc(OC)cc2)C3=N1 (stereo partly specified)
- IC50 [18]: 15.4 µM (inactive)
- IC50 [19]: > 69.5 µM (inactive)

Compound: O=[N+]([O-])/C=C\c1ccc(N2CCOCC2)cc1
- AC50 [21]: 13.6 µM (active)
- IC50 [22]: 4.32 µM (active)
- IC50 (Large T antigen): > 100 µM (active)

Compound: CCOC(=O)c1[nH]c2ccc(OC)cc2c1NS(=O)(=O)c1ccc(Cl)s1
- EC50 (cells): > 29.9 µM (inactive)
- IC50 (Galanin receptor type 3): 1.45 µM (active)
